Measured values reported in patent US8163750B2, “Fluorene derivatives, compositions containing the same and use thereof as inhibitors of the protein chaperone HSP 90” (Sanofi-Aventis, priority 2006, dated 2012).

How the values were obtained:
Hsp82 = Hsp82 (Saccharomyces cerevisiae, UniProt P02829); assay: Hsp82 ATPase activity, pyruvate kinase/lactate dehydrogenase enzymatic coupling system; format: biochemical; conditions: PK/LDH coupled kinetic method, NADH absorbance 340 nm, 1 μM Hsp82, 250 μM ATP, 37° C.
Chain of Hsp82 (P02829 whole entry): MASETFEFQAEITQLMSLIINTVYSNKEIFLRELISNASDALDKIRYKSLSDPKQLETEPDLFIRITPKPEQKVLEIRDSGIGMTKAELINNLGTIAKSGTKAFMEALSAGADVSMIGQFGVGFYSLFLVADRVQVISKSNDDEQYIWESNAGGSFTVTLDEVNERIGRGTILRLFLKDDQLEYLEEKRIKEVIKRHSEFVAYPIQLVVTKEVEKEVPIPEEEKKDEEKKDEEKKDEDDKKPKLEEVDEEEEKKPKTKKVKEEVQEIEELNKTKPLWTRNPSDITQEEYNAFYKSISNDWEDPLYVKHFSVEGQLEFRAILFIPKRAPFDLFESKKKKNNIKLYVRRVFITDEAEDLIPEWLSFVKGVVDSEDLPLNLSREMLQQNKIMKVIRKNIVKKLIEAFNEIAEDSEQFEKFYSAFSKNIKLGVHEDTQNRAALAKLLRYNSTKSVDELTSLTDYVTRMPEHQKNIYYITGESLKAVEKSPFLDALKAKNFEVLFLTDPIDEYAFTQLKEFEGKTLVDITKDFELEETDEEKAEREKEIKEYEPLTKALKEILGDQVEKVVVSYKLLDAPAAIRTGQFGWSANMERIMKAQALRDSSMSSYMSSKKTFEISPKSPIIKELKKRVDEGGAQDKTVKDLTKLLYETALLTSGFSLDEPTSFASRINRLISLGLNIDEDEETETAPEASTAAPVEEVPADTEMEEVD
Excerpt: The formation of ADP due to the ATPase activity of Hsp82 was utilized for developing another method of evaluating the enzymatic activity of this enzyme by the application of an enzymatic coupling system involving pyruvate kinase (PK) and lactate dehydrogenase (LDH). In this spectrophotometric method of the kinetic type, PK catalyses the formation of ATP and pyruvate from phosphoenol-pyruvate (PEP) and ADP produced by HSP82. The pyruvate formed, a substrate of LDH, is then converted to lactate in the presence of NADH. In this case, the decrease in the concentration of NADH, measured from the decrease in absorbance at a wavelength of 340 nm, is proportional to the concentration of ADP produced by HSP82. The test products are incubated in a reaction volume of 100 μl of buffer composed of 100 mM Hepes-NaOH (pH 7.5), 5 mM MgCl2, 1 mM DTT, 150 mM KCl, 0.3 mM NADH, 2.5 mM PEP and 250 μM ATP. This mixture is preincubated at 37° C. for 30 min before adding 3.77 units of LDH and 3.77 units of PK. The reaction is initiated by adding the product to be evaluated, at various concentrations, and Hsp82, at a concentration of 1 μM. Measurement of the enzymatic activity of Hsp82 is then performed continuously in a microplate reader, at 37° C., at a wavelength of 340 nm. The initial rate of the reaction is found by measuring the gradient of the tangent at the origin of the curve that is recorded. The enzymatic activity is expressed in μM of ADP formed per minute. The effect of the various products tested is expressed as percentage inhibition of ATPase activity according to the following code: • A: IC50<1 μM • B: 1 μM<IC50<10 μM • C: 10 μM<IC50<100 μM

Structure (SMILES) | IC50 (Hsp82) | melting point
O=C(NC1c2ccccc2-c2c(-c3ccc(F)nc3)cccc21)c1ccnc2[nH]ccc12 (racemic) [Example 4, [4-(6-fluoro-pyridin-3-yl)-9H-fluoren-9-(R,S)-yl]-amide of 1H-pyrrolo[2,3-b]pyridine-4-carboxylic acid] | 1000 to 10000 nM | > 260 °C
O=C(NC1c2ccccc2-c2c(-c3cnc4c(c3)CCCN4)cccc21)c1ccnc2[nH]ccc12 (racemic) [Example 18, [4-(5,6,7,8-tetrahydro-1,8-naphthyridin-3-yl)-9H-fluoren-9(R,S)-yl]-amide of 1H-pyrrolo[2,3-b]pyridine-4-carboxylic acid] | 1000 to 10000 nM | 
O=C(NC1c2ccccc2-c2c(-c3ccc4ccccc4n3)cccc21)c1ccnc2[nH]ccc12 (racemic) [Example 8, [4-(quinolin-2-yl)-9H-fluoren-9-(R,S)-yl]-amide of 1H-pyrrolo[2,3-b]pyridine-4-carboxylic acid] | 1000 to 10000 nM | 260 °C
O=C(NC1c2ccccc2-c2c(-c3cncnc3)cccc21)c1ccnc2[nH]ccc12 (racemic) [Example 7, [4-(pyrimidin-5-yl)-9H-fluoren-9-(R,S)yl]-amide of 1H-pyrrolo[2,3-b]pyridine-4-carboxylic acid] | < 1000 nM | > 260 °C
O=C(NC1c2ccccc2-c2c(-c3cnc4ccccc4c3)cccc21)c1ccnc2[nH]ccc12 (racemic) [Example 3, [4-(quinolin-3-yl)-9H-fluoren-9(R,S)-yl)]-amide of 1H-pyrrolo[2,3-b]pyridine-4-carboxylic acid] | 1000 to 10000 nM | > 260 °C
O=C(NC1c2ccccc2-c2c(-c3cnc4ccccc4c3)cccc21)c1c(Br)cnc2[nH]cnc12 (racemic) [Example 13, [4-(quinolin-3-yl)-9H-fluoren-9(R,S)-yl]-amide of 6-bromo-3H-imidazo[4,5-b]pyridine-7-carboxylic acid] | < 1000 nM | 
O=C(NC1c2ccccc2-c2c(-c3cnc4[nH]ccc4c3)cccc21)c1ccnc2[nH]ccc12 (racemic) [Example 17, [4-(1H-pyrrolo[2,3-b]pyridin-5-yl)-9H-fluoren-9(R,S)-yl]-amide of 1H-pyrrolo[2,3-b]pyridine-4-carboxylic acid] | < 1000 nM | 
O=C(NC1c2ccccc2-c2c(-c3cnc4ccccc4c3)cccc21)c1c(Br)cnc2[nH]cnc12 (single isomer, unassigned) [Example 20] | 10000 to 100000 nM | 
O=C(NC1c2ccccc2-c2c(C3=Nc4ccccc4OC3)cccc21)c1ccnc2[nH]ccc12 (racemic) [Example 10, [4-(1,4-benzoxazin-2H-3-yl)-9H-fluoren-9(R,S)-yl]-amide of 1H-pyrrolo[2,3-b]pyridine-4-carboxylic acid] | 1000 to 10000 nM | 
O=C(NC1c2ccccc2-c2c(-c3cn4ccccc4n3)cccc21)c1ccnc2[nH]ccc12 (racemic) [Example 19, 4-{imidazo[1,2-a]pyridin-2-yl}-9H-fluoren-9-(R,S)-yl-amide of 1H-pyrrolo[2,3-b]pyridine-4-carboxylic acid] | < 1000 nM | 270 °C
O=C(NC1c2ccccc2-c2c(-c3ccc(N4CCOCC4)nc3)cccc21)c1ccnc2[nH]ccc12 (racemic) [Example 14, [4-(2-morpholino-pyridin-5-yl)-9H-fluoren-9(R,S)-yl]-amide of 1H-pyrrolo[2,3-b]pyridine-4-carboxylic acid] | 1000 to 10000 nM | 
O=C(NC1c2ccccc2-c2c(-c3cnc4ccccc4c3)cccc21)c1ncnc2[nH]ccc12 (racemic) [Example 11, [4-(quinolin-3-yl)-9H-fluoren-9(R,S)-yl]-amide of 7H-pyrrolo[2,3-c]pyrimidine-4-carboxylic acid] | < 1000 nM | 
O=C(NC1c2ccccc2-c2c(-c3nc4ccccn4n3)cccc21)c1ccnc2[nH]ccc12 (racemic) [Example 9, (4-[1.2.4]triazolo[1,5-a]pyridin-2-yl-9H-fluoren-9(R,S)-yl)-amide of 1H-pyrrolo[2,3-b]pyridine-4-carboxylic acid] | 1000 to 10000 nM | 
O=C(NC1c2ccccc2-c2c(-c3nc4ccccc4o3)cccc21)c1ccnc2[nH]ccc12 (racemic) [Example 6, [4-(benzoxazol-2-yl)-9H-fluoren-9-(R,S)-yl]-amide of 1H-pyrrolo[2,3-b]pyridine-4-carboxylic acid] | < 1000 nM | > 260 °C
O=C(NC1c2ccccc2-c2c(-c3cc4ccccc4o3)cccc21)c1ccnc2[nH]ccc12 (racemic) [Example 2, [4-(benzofuran-2-yl)-9H-fluoren-9(R,S)-yl)]-amide of 1H-pyrrolo[2,3-b]pyridine-4-carboxylic acid] | 1000 to 10000 nM | > 260 °C
Nc1ncc(Cl)c(C(=O)NC2c3ccccc3-c3c(-c4cnc5ccccc5c4)cccc32)n1 (racemic) [Example 15, [4-(quinolin-3-yl)-9H-fluoren-9(R,S)-yl]-amide of 2-amino-5-chloro-pyrimidine-4-carboxylic acid] | < 1000 nM | 
O=C(NC1c2ccccc2-c2c(-c3cnc4ccccc4n3)cccc21)c1ccnc2[nH]ccc12 (racemic) [Example 12, [4-(quinoxalin-2-yl)-9H-fluoren-9(R,S)-yl]-amide of 1H-pyrrolo[2,3-b]pyridine-4-carboxylic acid] | 1000 to 10000 nM | 
O=C(NC1c2ccccc2-c2c(-c3cc4ccccc4[nH]3)cccc21)c1ccnc2[nH]ccc12 (racemic) [Example 5, [4-(1H-indol-2-yl)-9H-fluoren-9-(R,S)-yl]-amide of 1H-pyrrolo[2,3-b]pyridine-4-carboxylic acid] | < 1000 nM | 
O=C(NC1c2ccccc2-c2c(C(=O)n3ncc4ccccc43)cccc21)c1ccnc2[nH]ccc12 (racemic) [Example 16, [4-(indazole-1-carbonyl)-9H-fluoren-9(R,S)-yl]-amide of 1H-pyrrolo[2,3-b]pyridine-4-carboxylic acid] | 1000 to 10000 nM | 220 °C
O=C(NC1c2ccccc2-c2c(-c3cnc4ccccc4c3)cccc21)c1c(Br)cnc2[nH]cnc12 (single isomer, unassigned) [Example 21] | < 1000 nM | 
Nc1ncc(Cl)c(C(=O)NC2c3ccccc3-c3c(-c4ncc[nH]4)cccc32)n1 (racemic) [Example 1, [4-(1H-imidazol-2-yl)-9H-fluoren-9(R,S)-yl]-amide of 2-amino-5-chloro-pyrimidine-4-carboxylic acid] | 1000 to 10000 nM | 
